{
  "source": "patent US11446365B2",
  "about": "“Antimalarial enzyme conjugates, kits containing same, and methods of producing and using same” (priority 2017, dated 2022)",
  "system": "P. yoelii parasites in erythrocytes",
  "experiment": "Selenomethionine prodrug, 24 hour culture of parasitized blood, damaged parasites by flow cytometry",
  "type": "cell-based",
  "protocol": "Blood was harvested and pooled from three mice infected with the murine Plasmodium parasite P. yoelii. Pooled blood parasitemia was 4.0%. Erythrocytes were extracted from the blood and washed to remove debris. The cells were then incubated with excess mCGL-AV for 3 hours. After incubation, the cells were then washed to remove excess protein and debris. Samples were then incubated under an oxygen reduced atmosphere mimicking the conditions of blood within the body for 24 hours with varying concentrations of selenomethionine. Damaged parasites were enumerated via flow cytometry. The number of damaged parasites is expressed as a percentage of the total number of parasites. Error bars represent the standard error of n=3 repeats of the assay for the same pooled blood.\nTo insure that healthy red blood cells were not damaged by such high concentrations of mCGL-AV, samples of treated and untreated blood were imaged using light microscopy to search for signs of hemolysis.",
  "data": [
    {"smiles": "C[Se]CC[C@H](N)C(=O)O", "note": "[selenomethionine]", "values": [
      {"measurement": "impact on parasite viability, selenomethionine by itself", "setting": "24 hours of culture, varying concentrations of selenomethionine, no fusion protein", "result": "no significant impact on parasite viability"},
      {"measurement": "damaged parasites with selenomethionine plus mCGL-AV", "setting": "excess mCGL-AV 3 hours, wash, then 24 hours with varying concentrations of selenomethionine", "result": "boosted the cytotoxicity of the fusion protein"}
    ]}
  ]
}
